This is an account of results in US20200277262A1, “N-(CYANO-SUBSTITUTED BENZYL OR PYRIDINYLMETHYL)-3-HYDROXYPICOLINAMIDE DERIVATIVES” (Takeda Pharmaceutical Company Limited, priority 2017, published 2020).

Assay [1] addresses T1, PHD2 enzyme (residues 181-417) (Homo sapiens, UniProt Q9GZT9).
T1 construct: The IC50 values for the PHD2 enzyme (residues 181-417) were determined
Briefly: Inhibition of PHD2 Enzyme (LC/MS detection of hydroxylated peptide). It is filed as biochemical. As to conditions: 5 nM enzyme, 1 μM biotin-labeled peptide, 2 μM 2-oxoglutarate, 60 min pre-incubation, pH 7.3; -log(IC50), IC50 molar; read-out: Inhibition of PHD2 (pIC50) (converted). The protocol: The IC50 values for the PHD2 enzyme (residues 181-417) were determined by mixing increasing amounts of an inhibitor with a fixed amount of enzyme (5 nM, final concentration) and Biotin-labeled peptide (Biotin-Asp-Leu-Glu-Met-Leu-Ala-Pro-Tyr-Ile-Pro-Met-Asp-Asp-Asp-Phe-Gln-Leu, 1 μM final concentration) and 2-oxyglutarate (2 μM final concentration) in 50 mM HEPES, 50 mM KCl, 0.5 mM TCEP, 2 μM FeCl2, 0.1 mg/mL BSA, at pH 7.3. The reaction was conducted by pre-incubating the enzyme in the presence of the inhibitor for 60 minutes at room temperature. The activity of the free enzyme was measured by adding the peptide, the 2-oxoglutarate, and ascorbic acid (1 mM final concentration). The enzymatic activity was quenched after 60 minutes by adding an excess of a tight binding inhibitor to the assay mixture. The amount of product released was measured by using a LC/MS system (Agilent HPLC with Applied Biosystems API3000 Mass Spectrometer). Data were analyzed using the classical isotherm equation for the determination of IC50 values and are reported in Table 1, below, as pIC50, i.e., −log(IC50), where IC50 is molar concentration of the test compound at 50% inhibition.
(§1) Table 1 lists biological data for some of the compounds shown in the examples, where larger pIC50 and pEC50 values represent higher potency or activity, respectively. The IC50 data (reported in Table 1 as pIC50) were obtained using the enzyme-based assay described in the specification under the heading “Inhibition of PHD2 Enzyme.” The EC50 data (reported in Table 1 as pEC50) were obtained using the cell-based assay described in the specification under the heading “Cell-based HIF-α Stabilization Assay.”

Assay [2] relates to HIF1a protein content in H9c2 rat cardiomyocytes. Briefly: Cell-based HIF-α Stabilization Assay (HIF1a ELISA). As to conditions: H9c2 cells, 24 hours compound incubation, concentration giving 50% of desferrioxamine maximum response, -log(EC50), EC50 molar, read-out: Stabilization of HIF-α (pEC50) (converted). The method, then:
H9c2 rat cardiomyocytes (ATCC) were seeded in 96-well tissue culture microplates and cultured for 24 hours prior to addition of compounds (11 point range of serial dilutions) or DMSO vehicle. After 24 hours of compound incubation, whole cell extracts were prepared by lysing cells in cell extraction buffer containing protease and phosphatase inhibitors (Meso-Scale Discovery). HIF1a protein content was assessed by ELISA (Meso-Scale Discovery) and expressed as % relative to the maximum response obtained from the positive control, desferrioxamine (Sigma-Aldrich). EC50 for each compound was obtained by curve-fitting using XLfit4 MicroSoft Excel curve-fitting software to calculate the compound concentration that results in 50% of the desferrioxamine maximum response.
as §1

T1 sequence (Q9GZT9 181-417): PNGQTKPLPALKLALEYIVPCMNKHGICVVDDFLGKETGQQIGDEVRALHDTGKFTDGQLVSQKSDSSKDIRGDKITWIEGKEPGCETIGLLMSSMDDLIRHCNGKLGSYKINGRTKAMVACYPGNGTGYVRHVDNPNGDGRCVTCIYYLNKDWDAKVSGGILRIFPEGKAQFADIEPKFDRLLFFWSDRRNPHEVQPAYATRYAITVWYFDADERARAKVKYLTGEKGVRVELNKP

On to `N#Cc1ccc2c(c1)CC[C@H]2NC(=O)c1ncc(Cl)cc1O` [Example 31, (R)-5-chloro-N-(5-cyano-2,3-dihydro-1H-inden-1-yl)-3-hydroxypicolinamide], for which the IC50 in assay [1] is 31.6 nM. For the same molecule, in assay [2], the EC50 was 25100 nM.

As for `N#Cc1ccc2c(c1)CC[C@H]2NC(=O)c1ncc(C(F)(F)F)cc1O` [Example 32, (R)—N-(5-cyano-2,3-dihydro-1H-inden-1-yl)-3-hydroxy-5-(trifluoromethyl)picolinamide], in assay [1], the IC50 was 126 nM. Also, in assay [2], the EC50 was 39800 nM.

`COc1cnc(C(=O)N[C@@H]2CCc3cc(C#N)ccc32)c(O)c1` [Example 33, (R)—N-(5-cyano-2,3-dihydro-1H-inden-1-yl)-3-hydroxy-5-methoxypicolinamide]: the IC50 in assay [1] was 7.94 nM. In addition, the EC50 in assay [2] was 6310 nM.

On to `N#Cc1cnc(C(=O)N[C@@H]2CCc3cc(C#N)ccc32)c(O)c1` [Example 34, (R)-5-cyano-N-(5-cyano-2,3-dihydro-1H-inden-1-yl)-3-hydroxypicolinamide], for which, in assay [1], the IC50 was 39.8 nM. Further, the EC50 in assay [2] was 12600 nM.

On to `Cc1cc(C#N)ccc1CNC(=O)c1ncc(F)cc1O` [Example 35, N-(4-cyano-2-methylbenzyl)-5-fluoro-3-hydroxypicolinamide], for which, in assay [1], the IC50 is 20 nM. Further, the EC50 in assay [2] is 25100 nM.

As to `Cc1cc(C#N)ccc1CNC(=O)c1ncc(Cl)cc1O` [Example 36, 5-chloro-N-(4-cyano-2-methylbenzyl)-3-hydroxypicolinamide], the IC50 in assay [1] is 39.8 nM. Moreover, in assay [2], the EC50 is 25100 nM.

For the molecule `COc1cnc(C(=O)NCc2ccc(C#N)cc2C)c(O)c1` [Example 38, N-(4-cyano-2-methylbenzyl)-3-hydroxy-5-methoxypicolinamide], the IC50 in assay [1] is 10 nM. The EC50 in assay [2] was 7940 nM.

Turning to `CC(NC(=O)c1ncccc1O)c1ccc(C#N)cc1` (stereo not shown) [Example 39, N-(1-(4-cyanophenyl)ethyl)-3-hydroxypicolinamide], the IC50 in assay [1] was 1580 nM. Moreover, in assay [2], the EC50 was 50100 nM.

With `COCCCNc1cnc(C(=O)NCc2c(C)cc(C#N)cc2C)c(O)c1` [Example 40, N-(4-cyano-2,6-dimethylbenzyl)-3-hydroxy-5-((3-methoxypropyl)amino)picolinamide], in assay [1], the IC50 is 31.6 nM. Moreover, the EC50 in assay [2] is 2510 nM.

Turning to `CCN1CCN(c2cnc(C(=O)NCc3c(C)cc(C#N)cc3C)c(O)c2)CC1` [Example 41, N-(4-cyano-2,6-dimethylbenzyl)-5-(4-ethylpiperazin-1-yl)-3-hydroxypicolinamide], the IC50 in assay [1] was 79.4 nM. The EC50 in assay [2] is 6310 nM.

For the molecule `Cc1cc(C#N)cc(C)c1CNC(=O)c1ncc(N2CCN(CC(F)F)CC2)cc1O` [Example 42, N-(4-cyano-2,6-dimethylbenzyl)-5-(4-(2,2-difluoroethyl)piperazin-1-yl)-3-hydroxypicolinamide], the IC50 in assay [1] was 39.8 nM. Besides, in assay [2], the EC50 was 3980 nM.
